In patent US9695167B2, “Substituted triazolo[1,5-a]pyridines and triazolo[1,5-a]pyrazines as LSD1 inhibitors” (Incyte Corporation, priority 2014, dated 2017):

Molecular target: LSD-1 enzyme (LSD1/KDM1A) (Homo sapiens (Human), UniProt O60341)
Assay: biochemical
Description: LANCE LSD1/KDM1A demethylase assay—10 μL of 1 nM LSD-1 enzyme (ENZO BML-SE544-0050) in the assay buffer (50 mM Tris, pH 7.5, 0.01% Tween-20, 25 mM NaCl, 5 mM DTT) were preincubated for 1 hour at 25° C. with 0.8 μL compound/DMSO dotted in black 384 well polystyrene plates. […] After stopping the reactions plates were incubated for 30 minutes and read on a PHERAstar FS plate reader (BMG Labtech).

Row | Structure (SMILES) | IC50 [nM]
1 | Cc1ccc(-c2c(-c3ccc(C#N)cc3)cc(OC[C@@H]3CCNC3)c3ncnn23)cc1 [Example 1, 4-{5-(4-methylphenyl)-8-[(3R)-pyrrolidin-3-ylmethoxy][1,2,4]triazolo[1,5-a]pyridin-6-yl}benzonitrile] | < 50
2 | Cc1ccc(-c2c(-c3ccc(C#N)cc3)cc(CCC3CCNC3)c3ncnn23)cc1 (centres unmarked) [Example 2, 4-[5-(4-methylphenyl)-8-(2-pyrrolidin-3-ylethyl)[1,2,4]triazolo[1,5-a]pyridin-6-yl]benzonitrile] | < 50
3 | CN[C@H]1CCN(Cc2cc(-c3ccc(C#N)cc3)c(-c3ccc(C)cc3)n3ncnc23)C1 [Example 10, 4-[8-{[(3S)-3-(methylamino)pyrrolidin-1-yl]methyl}-5-(4-methylphenyl)[1,2,4]triazolo[1,5-a]pyridin-6-yl]benzonitrile] | < 50
4 | CN[C@@H]1CCN(Cc2cc(-c3ccc(C#N)cc3)c(-c3ccc(C)cc3)n3ncnc23)C1 [Example 11, 4-[8-{[(3R)-3-(methylamino)pyrrolidin-1-yl]methyl}-5-(4-methylphenyl)[1,2,4]triazolo[1,5-a]pyridin-6-yl]benzonitrile] | < 50
5 | Cc1ccc(-c2c(-c3ccc(C#N)cc3)nc(OC[C@@H]3CCNC3)c3ncnn23)cc1 [Example 12, 4-{5-(4-methylphenyl)-8-[(3R)-pyrrolidin-3-ylmethoxy][1,2,4]triazolo[1,5-a]pyrazin-6-yl}benzonitrile] | < 50
